Reference: PubChem BioAssay (NCI)
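Grown in 96-well plates, cells were treated for 48 hours with each compound at five concentrations. Insufficient inhibition: endpoint recorded as highest concentration tested. TGI marks complete inhibition of growth.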

Experiments:
Test in all cases: growth of human tumour cells (NCI), 48 h
[1] = test system: HCT-15 colon
[2] = test system: SNB-75 CNS
[3] = test system: HS 578T breast
[4] = test system: HOP-62 NSCLC
[5] = test system: SK-MEL-2 melanoma
[6] = test system: A549 NSCLC
[7] = test system: RXF 393 renal
[8] = test system: UACC-257 melanoma
[9] = test system: MDA-MB-231 breast
[10] = test system: TK-10 renal
[11] = test system: HL-60(TB) leukemia
[12] = test system: SW-620 colon
[13] = test system: SF-295 CNS
[14] = test system: HOP-92 NSCLC
[15] = test system: M14 melanoma
[16] = test system: SF-268 CNS
[17] = test system: K-562 leukemia
[18] = test system: NCI-H460 lung
[19] = test system: T-47D breast
[20] = test system: NCI/ADR-RES ovarian
[21] = test system: COLO 205 colon
[22] = test system: OVCAR-5 ovarian
[23] = test system: SK-OV-3 ovarian
[24] = test system: SN12C renal
[25] = test system: SF-539 CNS
[26] = test system: MALME-3M melanoma
[27] = test system: EKVX NSCLC
[28] = test system: CAKI-1 renal
[29] = test system: NCI-H23 lung
[30] = test system: SK-MEL-5 melanoma
[31] = test system: CCRF-CEM leukemia
[32] = test system: HT29 colon
[33] = test system: MDA-MB-435
[34] = test system: SR leukemia
[35] = test system: 786-0 renal
[36] = test system: OVCAR-3 ovarian
[37] = test system: NCI-H522 lung
[38] = test system: ACHN renal
[39] = test system: A498 renal
[40] = test system: U251 CNS
[41] = test system: BT-549 breast
[42] = test system: MDA-N
[43] = test system: MCF7 breast
[44] = test system: OVCAR-4 ovarian
[45] = test system: UACC-62 melanoma
[46] = test system: HCC-2998 colon
[47] = test system: SNB-19 CNS
[48] = test system: PC-3 prostate
[49] = test system: KM12 colon
[50] = test system: OVCAR-8 ovarian
[51] = test system: DU-145 prostate
[52] = test system: SK-MEL-28 melanoma
[53] = test system: IGROV1 ovarian
[54] = test system: HCT-116 colon
[55] = test system: MOLT-4 leukemia
[56] = test system: RPMI-8226 leukemia
[57] = test system: NCI-H226 lung
[58] = test system: UO-31 renal
[59] = test system: LOX IMVI melanoma

Measured: TGI

COC(=O)c1sc2c(=O)c(C(=O)OC)c(C(=O)OC)sc2c(=O)c1C(=O)OC
65.2 µM: [37]
> 100 µM: all other assays above

c1ccc(SCCc2ccncc2)cc1
> 100 µM: all assays above

COc1ccc2nc3cc([N+](=O)[O-])ccc3c(Nc3ccc(S(=O)(=O)Nc4ncccn4)cc3)c2c1
> 30.5 µM: [34]
92.4 µM: [3]
> 94.8 µM: [32]
> 81.3 µM: [39]
> 86.3 µM: [5]
> 48.3 µM: [55]
> 88.2 µM: [17]
> 23.2 µM: [29]
> 66.1 µM: [56]
> 53.6 µM: [47]
> 71.8 µM: [38]
> 100 µM: all other assays above

FC(F)(F)c1nc(SCc2ccc(Cl)cc2)n[nH]1
not listed: [31]
> 100 µM: all other assays above
